Here are results for nine compounds from patent US20250101039A1, “RIFAMYCIN DERIVATIVES FOR THE TREATMENT OF DISEASES” (priority 2022, published 2025).

Each structure is given as a SMILES string. Values after ≈ are worked out from the molar mass of the structure shown. A value given as a limit tells only on which side of the number the result lay.

The subject of test [1] is A. baumannii. Briefly: MIC by broth microdilution, A. baumannii (WT). The settings on record: for MIC A. baumannii: RPMI medium supplemented with 10% FCS, 35° C. 20 hours; for A. baumannii MIC, WT: Table 4, RPMI + FCS. Type of test: cell-based, Acinetobacter baumannii. On the technique in general: Dilution methods test growth across graded concentrations, often in twofold steps.

The test system of test [2] is S. aureus. In words: MIC by broth microdilution, S. aureus. In kind it is cell-based, Staphylococcus aureus. The settings on record: cation adjusted Mueller Hinton broth, 35° C. 20 hours.
Test [3] has as its system H. influenzae (strain ATCC 49247). Briefly: MIC by broth microdilution, H. influenzae. Type of test: cell-based, Hemophilus influenzae. The settings on record: strain ATCC 49247, Hemophilus test medium broth.
Test [4] has as its system M. tuberculosis (H37Rv strain ATCC 27294). Type of test: cell-based, Mycobacterium tuberculosis.
In test [5] the test system is M. abscessus (strain ATCC 19977). In words: MIC by broth microdilution, M. abscessus. Type of test: cell-based, Mycobacterium abscessus. To be noted: strain ATCC 19977, Middlebrook 7H9 broth + ADC.
In test [6] the test system is Staphylococcus epidermidis (strain ATCC 12228). Briefly: MIC by broth microdilution, S. epidermidis. Type of test: cell-based. The settings on record: strain ATCC 12228, cation adjusted Mueller Hinton broth.
Test [7] relates to S. pneumoniae (strain ATCC 49619). In words: MIC by broth microdilution, S. pneumoniae. In kind it is cell-based, Streptococcus pneumoniae. The settings on record: strain ATCC 49619, cation adjusted Mueller Hinton broth + 5% laked horse blood.
For test [8], the system named is A. baumannii RpoB H535L. Briefly: microbe, parasite or virus in culture. Type of test: cell-based, Acinetobacter baumannii. The settings on record: Table 4, RPMI + FCS.
Test [9] concerns Enterococcus faecium (strain NCTC 12204). In words: MIC by broth microdilution, E. faecium. Type of test: cell-based. The settings on record: strain NCTC 12204, cation adjusted Mueller Hinton broth.
Test [10] concerns A. baumannii RpoB H535C. In words: microbe, parasite or virus in culture. Type of test: cell-based, Acinetobacter baumannii. The settings on record: Table 4, RPMI + FCS.
Test [11] deals with S. pyogenes (strain IHMA 1117021). Briefly: MIC by broth microdilution, S. pyogenes. To be noted: strain IHMA 1117021, cation adjusted Mueller Hinton broth + 5% laked horse blood. In kind it is cell-based, Streptococcus pyogenes.
For test [12], the system named is M. smegmatis (strain ATCC 700084). In words: MIC, M. smegmatis (BacTiter-Glo). In kind it is cell-based, Mycobacterium smegmatis. The settings on record: strain ATCC 700084, Middlebrook 7H9 + ADC, 90% growth inhibition, 20 hours.
Test [13] relates to Enterococcus faecalis (strain ATCC 51575). In words: MIC by broth microdilution, E. faecalis. In kind it is cell-based. To be noted: strain ATCC 51575, cation adjusted Mueller Hinton broth.
Test [14] relates to A. baumannii RpoB H535Q. Briefly: microbe, parasite or virus in culture. In kind it is cell-based, Acinetobacter baumannii. The settings on record: Table 4, RPMI + FCS.

The compound `COC1C=COC2(C)Oc3c(C)c(O)c4c(c3C2=O)C2=NC3(NC2=C(NC(=O)C(C)=CC=CC(C)C(O)C(C)C(O)C(C)C(OC(C)=O)C1C)C4=O)C1CCC3CN(C)C1` (mixture of isomers) [1 (A + B)] registered an MIC A. baumannii in [1] of 0.25 mg/L. In test [2], this compound returned an MIC S. aureus of 0.016 mg/L.
The corresponding values for `COC1C=COC2(C)Oc3c(C)c(O)c4c(c3C2=O)C2=NC3(NC2=C(NC(=O)C(C)=CC=CC(C)C(O)C(C)C(O)C(C)C(OC(C)=O)C1C)C4=O)C1CCC3CN(C(C)(C)C)C1` (mixture of isomers) [2 (A + B)] are 2 mg/L and 0.008 mg/L.
`COC1C=COC2(C)Oc3c(C)c(O)c4c(c3C2=O)C2=NC3(NC2=C(NC(=O)C(C)=CC=CC(C)C(O)C(C)C(O)C(C)C(OC(C)=O)C1C)C4=O)C1CC3CN(C)C1` (mixture of isomers) [5 (A + B)] registered an MIC A. baumannii in test [1] of 8 mg/L. Besides, the MIC S. aureus in [2] worked out at 0.125 mg/L.
In test [3], `COC1C=COC2(C)Oc3c(C)c(O)c4c(c3C2=O)C2=NC3(CCC5CCC(C3)N5C)NC2=C(NC(=O)C(C)=CC=CC(C)C(O)C(C)C(O)C(C)C(OC(C)=O)C1C)C4=O` (mixture of isomers) [8 (A + B + C + D)] showed an MIC H. influenzae of 0.125 mg/L. Moreover, the MIC M. tuberculosis in test [4] was determined as 0.01 mg/L. The MIC M. abscessus in test [5] worked out at 32 mg/L. This compound also showed an MIC S. epidermidis in [6] of less than 0.002 mg/L. In test [7], the MIC S. pneumoniae is less than 0.002 mg/L. Besides, the “A. baumannii MIC, RpoB H535L” value in test [8] amounted to 1 mg/L. For the same compound, the MIC E. faecium in test [9] stood at 0.125 mg/L. Besides, in [1], the MIC A. baumannii worked out at 0.008 mg/L and the “A. baumannii MIC, WT” value came out at 0.008 mg/L. Also, the “A. baumannii MIC, RpoB H535C” value in [10] came to 0.125 mg/L. The MIC S. pyogenes in test [11] worked out at 0.016 mg/L. The MIC M. smegmatis in test [12] was determined as 1.19 mg/L. For the same compound, the MIC E. faecalis in [13] was determined as 2 mg/L. This compound came in with an MIC S. aureus in test [2] of 0.03 mg/L. For the same compound, the “A. baumannii MIC, RpoB H535Q” value in test [14] is reported as 0.06 mg/L.
As to `COC1C=COC2(C)Oc3c(C)c(O)c4c(c3C2=O)C2=NC3(CC5CCC(C3)N5C3CCCC3)NC2=C(NC(=O)C(C)=CC=CC(C)C(O)C(C)C(O)C(C)C(OC(C)=O)C1C)C4=O` (mixture of isomers) [15 (A + B)], the MIC A. baumannii in test [1] stood at 0.25 mg/L. Moreover, in [2], the MIC S. aureus was found to be 0.03 mg/L.
`COC1C=COC2(C)Oc3c(C)c(O)c4c(c3C2=O)C2=NC3(NC2=C(NC(=O)C(C)=CC=CC(C)C(O)C(C)C(O)C(C)C(OC(C)=O)C1C)C4=O)C1CCCC3CNC1` (mixture of isomers) [16 (A + B)] gave an MIC H. influenzae in test [3] of 0.06 mg/L. The MIC M. abscessus in test [5] was determined as 4 mg/L. In test [6], this compound yielded an MIC S. epidermidis of less than 0.002 mg/L. Besides, the MIC S. pneumoniae in test [7] is less than 0.002 mg/L. Besides, the “A. baumannii MIC, RpoB H535L” value in test [8] is listed as 1 mg/L. The compound also showed an MIC E. faecium in test [9] of 0.125 mg/L. For the same compound, in [1], the MIC A. baumannii was less than 0.002 mg/L and the “A. baumannii MIC, WT” value is given as not above 0.002 mg/L. Besides, in [10], the “A. baumannii MIC, RpoB H535C” value amounted to 0.016 mg/L. Further, the MIC S. pyogenes in [11] is less than 0.002 mg/L. The MIC M. smegmatis in test [12] is 0.33 mg/L. This compound also registered an MIC E. faecalis in test [13] of 0.5 mg/L. This compound gave an MIC S. aureus in [2] of 0.004 mg/L. Further, in [14], the “A. baumannii MIC, RpoB H535Q” value turned out to be 0.008 mg/L.
In test [1], `CO[C@H]1/C=C/O[C@@]2(C)Oc3c(C)c(O)c4c(c3C2=O)C2=NC3(CCCNCC3)NC2=C(NC(=O)/C(C)=C\C=C\[C@H](C)[C@H](O)[C@@H](C)[C@@H](O)[C@@H](C)[C@H](OC(C)=O)[C@@H]1C)C4=O` (single isomer, unassigned) [Compound 6A] showed an MIC A. baumannii of 0.125 mg/L (≈ 0.155 µM). Further, the MIC S. aureus in test [2] amounted to 0.016 mg/L (≈ 0.0199 µM).
Turning to `CO[C@H]1/C=C/O[C@@]2(C)Oc3c(C)c(O)c4c(c3C2=O)C2=NC3(CCCNCC3)NC2=C(NC(=O)/C(C)=C\C=C\[C@H](C)[C@H](O)[C@@H](C)[C@@H](O)[C@@H](C)[C@H](OC(C)=O)[C@@H]1C)C4=O` (single isomer, unassigned) [Compound 6B], the “MIC A. baumannii” value in test [1] amounted to 125 mg/L (≈ 155 µM). Besides, the “MIC S. aureus” value in [2] turned out to be 16 mg/L (≈ 19.9 µM).
`CO[C@H]1/C=C/O[C@@]2(C)Oc3c(C)c(O)c4c(c3C2=O)C2=NC3(CCCN(C)CC3)NC2=C(NC(=O)/C(C)=C\C=C\[C@H](C)[C@H](O)[C@@H](C)[C@@H](O)[C@@H](C)[C@H](OC(C)=O)[C@@H]1C)C4=O` (single isomer, unassigned) [Compound 7A] returned an MIC H. influenzae in test [3] of 0.06 mg/L (≈ 0.0733 µM). The compound further gave an MIC M. tuberculosis in test [4] of 0.01 mg/L (≈ 0.0122 µM). Further, in test [5], the MIC M. abscessus was 16 mg/L. In [6], this compound showed an MIC S. epidermidis of less than 0.002 mg/L. For the same compound, in test [7], the MIC S. pneumoniae is less than 0.002 mg/L. In addition, in [8], the “A. baumannii MIC, RpoB H535L” value was 1 mg/L. In test [9], this compound came in with an MIC E. faecium of 0.06 mg/L (≈ 0.0733 µM). Also, in test [1], the MIC A. baumannii worked out at 0.004 mg/L (≈ 0.00488 µM) and the “A. baumannii MIC, WT” value is given as 0.004 mg/L. Further, in test [10], the “A. baumannii MIC, RpoB H535C” value is 0.03 mg/L. Besides, the MIC S. pyogenes in test [11] is less than 0.002 mg/L. In test [12], the MIC M. smegmatis was 0.54 mg/L. Besides, in test [13], the MIC E. faecalis was 0.5 mg/L (≈ 0.611 µM). For the same compound, in test [2], the MIC S. aureus was 0.008 mg/L (≈ 0.00977 µM). For the same compound, the “A. baumannii MIC, RpoB H535Q” value in [14] was determined as 0.016 mg/L.
